Measurements as given in patent US20030195191A1, “N-sulfonyl hydroxamic acid derivatives as inhibitors of cd23” (priority 2000, published 2003).

Target: T1, human recombinant collagenase (Homo sapiens, UniProt P03956)
T1 construct: made in house; host or cells: E. coli
T1 sequence (P03956 100-469): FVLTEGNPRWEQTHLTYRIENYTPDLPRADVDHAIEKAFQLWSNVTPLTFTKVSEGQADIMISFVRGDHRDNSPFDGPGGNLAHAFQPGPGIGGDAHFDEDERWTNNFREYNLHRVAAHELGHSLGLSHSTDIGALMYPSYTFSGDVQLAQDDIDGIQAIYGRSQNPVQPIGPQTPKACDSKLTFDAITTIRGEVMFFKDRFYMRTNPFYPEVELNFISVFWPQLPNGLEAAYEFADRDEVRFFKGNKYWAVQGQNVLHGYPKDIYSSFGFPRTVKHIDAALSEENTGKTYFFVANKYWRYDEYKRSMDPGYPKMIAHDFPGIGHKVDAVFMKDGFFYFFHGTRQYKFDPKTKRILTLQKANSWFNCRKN
Test: Collagenase inhibition assay
Type: biochemical
Details: 37° C., 18 h, acetylated 3H type 1 bovine collagen
Experimental: Procedure 2: The Ability of Test Compounds to Inhibit Collagenase was Investigated Using the Following Procedure.
Collagenase Inhibition Assay:
The potency of compounds to act as inhibitors of collagenase was determined by the method of Cawston and Barrett (Anal. Biochem. 99, 340-345, 1979), hereby incorporated by reference, whereby a 1 mM solution of the inhibitor being tested or dilutions thereof, was incubated at 37° C. for 18 h with collagen and human recombinant collagenase, from synovial fibroblasts cloned, expressed and purified from E. Coli, (buffered with 150 mM Tris, pH 7.6, containing 15 mM calcium chloride, 0.05% Brij 35, 200 mM sodium chloride and 0.02% sodium azide). The collagen was acetylated ^3H type 1 bovine collagen prepared by the method of Cawston and Murphy (methods in Enzymology 80, 711,1981) The samples were centrifuged to sediment undigested collagen and an aliquot of the radioactive supernatant removed for assay on a scintillation counter as a measure of hydrolysis. The collagenase activity in the presence of 1 mM inhibitor, or dilution thereof, was compared to activity in a control devoid of inhibitor and the results reported as that concentration effecting 50% of the collagenase (IC50).

- IC50: > 10 µM
Compound: O=C(NO)[C@H]1CCCCN1S(=O)(=O)Cc1ccc2ccccc2c1 [Example 2, (R)-1-(Naphthalen-2-ylmethanesulfonyl)piperidine-2-carboxylic Acid N-hydroxyamide]
